According to patent publication US11802133B2, “Heterocyclic compounds as monoacylglycerol lipase inhibitors” (Hoffmann-La Roche Inc., priority 2018, dated 2023):

Biological target: MAGL (Homo sapiens (Human), UniProt Q99685)
Assay: 2-AG assay: MAGL inhibitory activity by hydrolysis of 2-arachidonoylglycerol to arachidonic acid (mass spectrometry)
Format: biochemical
Settings: measured in 2-AG assay (footnote [b]); 8 μM 2-arachidonoylglycerol
Experimental: Alternatively, compounds were profiled for MAGL inhibitory activity by determining the enzymatic activity by following the hydrolysis of the natural substrate 2-arachidonoylglycerol resulting in arachidonic acid, which can be followed by mass spectrometry. This assay is hereinafter abbreviated “2-AG assay”.
A C18 SPE cartridge (G9205A) was used in an acetonitrile/water liquid setup. […] The activity of the compounds was calculated based on the ratio of intensities [arachidonic acid/d8-arachidonic acid].

Chain of MAGL (Q99685 whole entry, species assumed): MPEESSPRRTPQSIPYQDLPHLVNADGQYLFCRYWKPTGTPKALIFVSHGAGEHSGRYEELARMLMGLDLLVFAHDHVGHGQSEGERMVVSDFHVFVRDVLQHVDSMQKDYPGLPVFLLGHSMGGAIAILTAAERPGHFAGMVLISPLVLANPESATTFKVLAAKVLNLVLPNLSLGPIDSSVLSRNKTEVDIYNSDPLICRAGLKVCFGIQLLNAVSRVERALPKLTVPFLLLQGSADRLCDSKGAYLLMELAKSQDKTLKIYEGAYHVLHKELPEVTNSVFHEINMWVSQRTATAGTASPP

| Structure (SMILES) | IC50 [µM] |
| --- | --- |
| CC(=O)c1cc(C(F)(F)F)ccc1CCC1CN(C(=O)N2CC[C@@H]3OCC(=O)N[C@@H]3C2)C1 [Example 220] | 0.003 |
| Cc1c(COC2CN(C(=O)N3CC[C@@H]4OCC(=O)N[C@@H]4C3)C2)cccc1C(F)(F)F [Example 250] | 0.008 |
| Cc1cc(C(F)(F)F)ccc1COC1CN(C(=O)N2CC[C@@H]3OCC(=O)N[C@@H]3C2)C1 [Example 292] | 0.005 |
| O=C1CO[C@H]2CCN(C(=O)N3CCC(Oc4cc(-n5cccn5)cc(C(F)(F)F)c4)CC3)C[C@H]2N1 [Example 201] | 0.239 |
| N#Cc1cc(OC2CCN(C(=O)N3CC[C@@H]4OCC(=O)N[C@@H]4C3)CC2)ccc1C(F)(F)F [Example 262] | 0.181 |
| Cc1cc(OC[C@@H]2CCN(C(=O)N3CC[C@@H]4OCC(=O)N[C@@H]4C3)C[C@@H]2C)cnc1C(F)(F)F [Example 231] | 0.005 |
| N#Cc1cc(C(F)(F)F)ccc1OC1CCN(C(=O)N2CC[C@@H]3OCC(=O)N[C@@H]3C2)CC1 [Example 123] | 0.082 |
| O=C1CO[C@H]2CCN(C(=O)N3CCC(Oc4cc(C(F)(F)F)ccc4F)C3)C[C@H]2N1 (some centres unmarked) [Example 285] | 2.6 |
| Cc1ccc(COC2CN(C(=O)N3CC[C@@H]4OCC(=O)N[C@@H]4C3)C2)c(C(F)(F)F)c1 [Example 217] | 0.01 |
| O=C1CO[C@H]2CCN(C(=O)N3CCC(Cc4ccc(C(F)(F)F)cc4OCC(F)(F)F)CC3)C[C@H]2N1 [Example 202] | 0.054 |
| Cc1c(COC2CN(C(=O)N3CC[C@@H]4OCC(=O)N[C@@H]4C3)C2C)cccc1C(F)(F)F (some centres unmarked) [Example 253] | 0.01 |
| O=C1CO[C@H]2CCN(C(=O)N3CCC(Oc4ccc(Cl)c(C(F)(F)F)c4)CC3)C[C@H]2N1 [Example 119] | 0.014 |
| O=C1CO[C@H]2CCN(C(=O)N3CCC(Oc4cc(-n5cncn5)cc(C(F)(F)F)c4)CC3)C[C@H]2N1 [Example 203] | 0.871 |
| O=C1CO[C@H]2CCN(C(=O)N3CC(Cc4cccc(OC(F)(F)F)c4)C3)C[C@H]2N1 [Example 282] | 0.136 |
| CC1C(Oc2cc(C(F)(F)F)ccc2Br)CCN1C(=O)N1CC[C@@H]2OCC(=O)N[C@@H]2C1 (some centres unmarked) [Example 246] | 1 |
| O=C1CO[C@H]2CCN(C(=O)N3CCC(Oc4cc(C(F)(F)F)ccc4F)C3)C[C@H]2N1 (some centres unmarked) [Example 283] | 0.179 |
| O=C1CO[C@H]2CCN(C(=O)N3CCC(Cc4c(F)cc(C(F)(F)F)cc4F)CC3)C[C@H]2N1 [Example 211] | 0.017 |
| O=C1CO[C@H]2CCN(C(=O)N3CC(Oc4ccc(C(F)(F)F)cc4)C3)C[C@H]2N1 [Example 118] | 0.132 |

| Structure (SMILES) | IC50 [µM] |
| --- | --- |
| C[C@@H]1[C@@H](Oc2cc(C(F)(F)F)ccc2Br)CCN1C(=O)N1CC[C@@H]2OCC(=O)N[C@@H]2C1 [Example 247] | 1.1 |
| O=C1CO[C@H]2CCN(C(=O)N3CCC(Oc4ccc(Cl)c(C5CC5)c4)CC3)C[C@H]2N1 [Example 120] | 0.007 |
| O=C1CO[C@H]2CCN(C(=O)N3CC(OCc4nc(-c5ccc(F)cc5)cs4)C3)C[C@H]2N1 [Example 244] | 0.03 |
| C[C@H]1[C@H](Oc2cc(C(F)(F)F)ccc2Br)CCN1C(=O)N1CC[C@@H]2OCC(=O)N[C@@H]2C1 [Example 248] | 0.607 |
| CC(C)(C)OC1CN(c2cccc(OC3CN(C(=O)N4CC[C@@H]5OCC(=O)N[C@@H]5C4)C3)c2Cl)C1 [Example 274, (+)-(4aR,8aS)-6-(3-(3-(3-(tert-Butoxy)azetidin-1-yl)-2-chlorophenoxy)azetidine-1-carbonyl)hexahydro-2H-pyrido[4,3-b][1,4]oxazin-3(4H)-one] | 0.126 |
| COc1cc(COC2CN(C(=O)N3CC[C@@H]4OCC(=O)N[C@@H]4C3)C2)ccc1C(F)(F)F [Example 88] | 0.005 |
| O=C1CO[C@H]2CCN(C(=O)N3CCCC(Cc4ccc(C(F)(F)F)cc4)CC3)C[C@H]2N1 (some centres unmarked) [Example 142] | 0.075 |
| N#Cc1cc(OC2CN(C(=O)N3CC[C@@H]4OCC(=O)N[C@@H]4C3)C2)ccc1C(F)(F)F [Example 263, (+)-5-[1-[(4aR,8aS)-3-Oxo-4,4a,5,7,8,8a-hexahydropyrido[4,3-b][1,4]oxazine-6-carbonyl]azetidin-3-yl]oxy-2-(trifluoromethyl)benzonitrile] | 1.1 |
| O=C1CO[C@H]2CCN(C(=O)N3CCC(Oc4ccc(Cl)cc4)CC3)C[C@H]2N1 [Example 210] | 0.08 |
| Cc1cc(OC(F)(F)F)ccc1COC1CN(C(=O)N2CC[C@@H]3OCC(=O)N[C@@H]3C2)C1 [Example 251] | 0.005 |
| O=C1CO[C@H]2CCN(C(=O)N3CCC(COc4cccc(Cl)c4)C3)C[C@H]2N1 (some centres unmarked) [Example 90] | 0.168 |
| O=C1CO[C@H]2CCN(C(=O)N3CC(OCc4ccc(C(F)(F)F)cn4)C3)C[C@H]2N1 [Example 230] | 0.073 |
| Cc1cc(OCC2CCN(C(=O)N3CC[C@@H]4OCC(=O)N[C@@H]4C3)CC2)cnc1C(F)(F)F [Example 89] | 0.034 |
| O=C1CO[C@H]2CCN(C(=O)N3CCC(Oc4ccc(C(F)(F)F)cc4F)CC3)C[C@H]2N1 [Example 254] | 0.064 |
| O=C1CO[C@H]2CCN(C(=O)N3CCC(Oc4ccc(C(F)(F)F)c(C5CC5)c4)CC3)C[C@H]2N1 [Example 208] | 0.003 |
| O=C1CO[C@H]2CCN(C(=O)N3CC(/C=C/c4c(F)cccc4C(F)(F)F)C3)C[C@H]2N1 [Example 289] | 0.003 |
| O=C1CO[C@H]2CCN(C(=O)N3CC(OCc4ccc(F)cc4C(F)(F)F)C3)C[C@H]2N1 [Example 280] | 0.041 |
| O=C1CO[C@H]2CCN(C(=O)N3CC(OCc4ccc(S(F)(F)(F)(F)F)cc4F)C3)C[C@H]2N1 [Example 240] | 0.016 |

The next lines start with the values.

| IC50 [µM] | Structure (SMILES) |
| --- | --- |
| 0.151 | O=C1CO[C@H]2CCN(C(=O)N3CCC(Oc4ccc(Cl)c(N5CCOCC5)c4)CC3)C[C@H]2N1 [Example 121] |
| 0.089 | CC1(F)CN(c2cccc(OC3CN(C(=O)N4CC[C@@H]5OCC(=O)N[C@@H]5C4)C3)c2Cl)C1 [Example 273, (+)-(4aR,8aS)-6-[3-[2-Chloro-3-(3-fluoro-3-methyl-azetidin-1-yl)phenoxy]azetidine-1-carbonyl]-4,4a,5,7,8,8a-hexahydropyrido[4,3-b] [1,4] oxazin-3-one] |
| 0.048 | O=C1CO[C@H]2CCN(C(=O)N3CC(Oc4ccc(C(F)(F)F)c(Cl)c4)C3)C[C@H]2N1 [Example 261] |
| 0.015 | O=C1CO[C@H]2CCN(C(=O)N3CC(Oc4cccc(C5CC5)c4Cl)C3)C[C@H]2N1 [Example 259] |
| 0.006 | O=C1CO[C@H]2CCN(C(=O)N3CC(Oc4ccc(C(F)(F)F)c(N5CC6(CCC6)C5)c4)C3)C[C@H]2N1 [Example 265, (+)-(4aR,8aS)-6-[3-[3-(2-Azaspiro[3.3]heptan-2-yl)-4-(trifluoromethyl)phenoxy]azetidine-1-carbonyl]-4,4a,5,7,8,8a-hexahydropyrido[4,3-b][1,4]oxazin-3-one] |
| 0.084 | O=C1CO[C@H]2CCN(C(=O)N3CC(Oc4ccc(Cl)c(Br)c4)C3)C[C@H]2N1 [Example 264] |
| 0.018 | O=C1CO[C@H]2CCN(C(=O)N3CC(Oc4ccc(C(F)(F)F)c(C5CC5)c4)C3)C[C@H]2N1 [Example 260] |
| 0.044 | Cc1cccc(COC2CN(C(=O)N3CC[C@@H]4OCC(=O)N[C@@H]4C3)C2)c1C [Example 290] |
| 0.02 | O=C1CO[C@H]2CCN(C(=O)N3CC(Oc4cccc(N5CC6(CCC6)C5)c4Cl)C3)C[C@H]2N1 [Example 271, (+)-(4aR,8aS)-6-[3-[3-(2-Azaspiro[3.3]heptan-2-yl)-2-chloro-phenoxy]azetidine-1-carbonyl]-4,4a,5,7,8,8a-hexahydropyrido[4,3-b][1,4]oxazin-3-one] |
| 0.098 | O=C1CO[C@H]2CCN(C(=O)N3CC(Oc4ccc(C(F)(F)F)cc4Cl)C3)C[C@H]2N1 [Example 213] |
| 0.061 | O=C1CO[C@H]2CCN(C(=O)N3CC(Oc4ccc(C(F)(F)F)c(N5CC6(CCCCO6)C5)c4)C3)C[C@H]2N1 [Example 270, (+)-(4aR,8aS)-6-[3-[3-(5-oxa-2-azaspiro[3.5]nonan-2-yl)-4-(trifluoromethyl)phenoxy]azetidine-1-carbonyl]-4,4a,5,7,8,8a-hexahydropyrido[4,3-b][l,4]oxazin-3-one] |
| 0.011 | O=C1CO[C@H]2CCN(C(=O)N3CC(Oc4ccc(Cl)c(C5CC5)c4)C3)C[C@H]2N1 [Example 256] |
| 0.072 | O=C1CO[C@H]2CCN(C(=O)N3CCC(Oc4cc(C(F)(F)F)ccc4Cl)C3)C[C@H]2N1 (some centres unmarked) [Example 284] |
| 0.04 | O=C1CO[C@H]2CCN(C(=O)N3CCCC(COc4ccc(F)cc4Cl)CC3)C[C@H]2N1 (some centres unmarked) [Example 141] |
| 0.019 | O=C1CO[C@H]2CCN(C(=O)N3CC(Oc4cccc(N5CC6(CCCCO6)C5)c4Cl)C3)C[C@H]2N1 [Example 276, (+)-(4aR,8aS)-6-[3-[2-chloro-3-(5-oxa-2-azaspiro[3.5]nonan-2-yl)phenoxy]azetidine-1-carbonyl]-4,4a,5,7,8,8a-hexahydropyrido[4,3-b][1,4]oxazin-3-one] |
| 0.059 | O=C1CO[C@H]2CCN(C(=O)N3CCCC(COc4ccc(F)cc4Cl)CC3)C[C@H]2N1 (some centres unmarked) [Example 140] |
| 0.032 | O=C1CO[C@H]2CCN(C(=O)N3CC(Oc4cccc(N5CC6(CCCO6)C5)c4Cl)C3)C[C@H]2N1 [Example 275, (+)-(4aR,8aS)-6-[3-[2-Chloro-3-(5-oxa-2-azaspiro[3.4]octan-2-yl)phenoxy]azetidine-1-carbonyl]-4,4a,5,7,8,8a-hexahydropyrido[4,3-b][1,4]oxazin-3-one] |
